Reference: ChEMBL document CHEMBL2021851, “Synthesis and SAR studies of imidazo-[1,2-a]-pyrazine Aurora kinase inhibitors with improved off-target kinase selectivity” (Bioorg Med Chem Lett, 2012)

What was measured:
Aurora kinase A = target: T1, Aurora kinase A (Homo sapiens, UniProt O14965); experiment: Inhibition of aurora A kinase using 5TAMRA-GRTGRRNSICOOH as substrate by fluorescent assay
T1 sequence (O14965 whole entry): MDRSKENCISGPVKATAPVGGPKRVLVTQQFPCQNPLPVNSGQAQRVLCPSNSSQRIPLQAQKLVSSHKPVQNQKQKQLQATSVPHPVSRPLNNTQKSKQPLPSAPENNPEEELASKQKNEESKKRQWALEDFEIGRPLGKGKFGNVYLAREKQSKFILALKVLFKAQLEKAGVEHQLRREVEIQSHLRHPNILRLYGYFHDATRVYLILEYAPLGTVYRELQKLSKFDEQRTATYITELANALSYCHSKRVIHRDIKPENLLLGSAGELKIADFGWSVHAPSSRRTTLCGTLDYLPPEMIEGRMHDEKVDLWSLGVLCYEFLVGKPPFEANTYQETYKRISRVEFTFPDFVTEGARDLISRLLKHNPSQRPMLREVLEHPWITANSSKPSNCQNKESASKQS

Aurora kinase B [1] = target: T2, Aurora kinase B (Homo sapiens, UniProt Q96GD4); experiment: Inhibition of aurora B kinase using 5TAMRA-GRTGRRNSICOOH as substrate by fluorescent assay
T2 sequence (Q96GD4 whole entry): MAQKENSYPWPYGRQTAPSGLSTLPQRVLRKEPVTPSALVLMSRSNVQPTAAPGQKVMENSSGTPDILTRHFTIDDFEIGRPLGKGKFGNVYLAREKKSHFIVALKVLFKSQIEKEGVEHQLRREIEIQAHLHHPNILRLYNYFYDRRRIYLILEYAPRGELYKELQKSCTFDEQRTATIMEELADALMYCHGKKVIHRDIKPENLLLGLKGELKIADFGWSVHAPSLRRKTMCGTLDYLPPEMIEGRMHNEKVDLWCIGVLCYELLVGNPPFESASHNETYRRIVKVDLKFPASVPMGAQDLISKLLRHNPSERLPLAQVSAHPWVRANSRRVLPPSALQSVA

Aurora kinase B [2] = target: T2, Aurora kinase B; experiment: Inhibition of aurora B kinase in human HCT116 cells assessed as inhibition of histone H3 phosphorylation incubated for 1 hr by Hoechst 33342 staining based microscopic analysis; type: cell-based, HCT-116
[3] = target: Vascular endothelial growth factor receptor 2 (Homo sapiens, UniProt P35968); experiment: Inhibition of VEGFR2
Sequence of Vascular endothelial growth factor receptor 2 (P35968 whole entry): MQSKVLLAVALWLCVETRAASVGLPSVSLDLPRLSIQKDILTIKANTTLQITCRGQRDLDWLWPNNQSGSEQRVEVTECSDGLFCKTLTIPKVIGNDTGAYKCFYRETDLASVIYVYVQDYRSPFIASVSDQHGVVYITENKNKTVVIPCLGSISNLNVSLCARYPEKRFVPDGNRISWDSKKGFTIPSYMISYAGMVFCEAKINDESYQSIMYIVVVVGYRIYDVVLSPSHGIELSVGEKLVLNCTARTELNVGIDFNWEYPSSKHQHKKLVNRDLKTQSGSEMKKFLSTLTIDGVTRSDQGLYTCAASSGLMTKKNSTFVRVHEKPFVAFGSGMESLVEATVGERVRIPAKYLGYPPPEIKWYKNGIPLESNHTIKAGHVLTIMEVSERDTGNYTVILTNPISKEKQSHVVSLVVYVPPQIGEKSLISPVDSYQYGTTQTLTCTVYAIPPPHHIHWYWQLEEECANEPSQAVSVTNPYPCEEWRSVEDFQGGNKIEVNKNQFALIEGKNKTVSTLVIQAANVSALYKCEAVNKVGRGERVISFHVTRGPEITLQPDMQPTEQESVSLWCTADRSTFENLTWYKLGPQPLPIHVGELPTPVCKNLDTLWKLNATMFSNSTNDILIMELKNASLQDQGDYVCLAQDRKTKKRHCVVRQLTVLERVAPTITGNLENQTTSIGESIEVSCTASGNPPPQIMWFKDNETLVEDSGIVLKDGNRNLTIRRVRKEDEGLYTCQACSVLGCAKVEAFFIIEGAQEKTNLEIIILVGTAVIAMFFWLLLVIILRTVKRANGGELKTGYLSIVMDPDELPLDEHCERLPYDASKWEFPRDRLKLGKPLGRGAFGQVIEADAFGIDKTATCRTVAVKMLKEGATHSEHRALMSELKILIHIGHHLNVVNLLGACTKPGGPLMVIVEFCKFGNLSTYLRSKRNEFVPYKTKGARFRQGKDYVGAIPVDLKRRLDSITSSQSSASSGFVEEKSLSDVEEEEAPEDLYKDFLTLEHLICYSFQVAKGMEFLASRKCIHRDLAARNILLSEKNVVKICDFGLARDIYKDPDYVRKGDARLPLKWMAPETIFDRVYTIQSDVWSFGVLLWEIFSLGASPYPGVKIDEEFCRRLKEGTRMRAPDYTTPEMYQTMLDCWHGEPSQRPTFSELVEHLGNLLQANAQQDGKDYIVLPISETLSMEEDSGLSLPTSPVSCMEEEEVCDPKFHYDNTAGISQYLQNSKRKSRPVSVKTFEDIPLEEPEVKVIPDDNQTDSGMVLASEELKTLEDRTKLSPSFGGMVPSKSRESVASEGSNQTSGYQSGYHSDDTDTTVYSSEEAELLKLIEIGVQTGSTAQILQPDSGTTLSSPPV

[4] = target: Tyrosine-protein kinase Lck (Homo sapiens, UniProt P06239); experiment: Inhibition of LCK
Sequence of Tyrosine-protein kinase Lck (P06239 whole entry): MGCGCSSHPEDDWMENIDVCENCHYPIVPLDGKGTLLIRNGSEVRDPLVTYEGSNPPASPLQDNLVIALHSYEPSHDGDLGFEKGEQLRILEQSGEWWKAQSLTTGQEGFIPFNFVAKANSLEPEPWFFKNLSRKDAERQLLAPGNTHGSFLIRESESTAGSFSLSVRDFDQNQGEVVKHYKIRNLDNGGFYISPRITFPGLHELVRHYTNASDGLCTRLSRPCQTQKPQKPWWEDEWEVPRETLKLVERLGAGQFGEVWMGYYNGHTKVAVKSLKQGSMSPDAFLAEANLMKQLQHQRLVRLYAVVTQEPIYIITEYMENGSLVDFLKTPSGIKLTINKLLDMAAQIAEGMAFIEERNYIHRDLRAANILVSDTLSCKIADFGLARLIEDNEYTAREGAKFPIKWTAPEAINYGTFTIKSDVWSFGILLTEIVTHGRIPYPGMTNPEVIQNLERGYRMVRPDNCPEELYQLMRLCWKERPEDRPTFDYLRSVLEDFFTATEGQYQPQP

[5] = target: T3, Serine/threonine-protein kinase Chk1 (Homo sapiens, UniProt O14757); experiment: Inhibition of Chk1
T3 sequence (O14757 whole entry): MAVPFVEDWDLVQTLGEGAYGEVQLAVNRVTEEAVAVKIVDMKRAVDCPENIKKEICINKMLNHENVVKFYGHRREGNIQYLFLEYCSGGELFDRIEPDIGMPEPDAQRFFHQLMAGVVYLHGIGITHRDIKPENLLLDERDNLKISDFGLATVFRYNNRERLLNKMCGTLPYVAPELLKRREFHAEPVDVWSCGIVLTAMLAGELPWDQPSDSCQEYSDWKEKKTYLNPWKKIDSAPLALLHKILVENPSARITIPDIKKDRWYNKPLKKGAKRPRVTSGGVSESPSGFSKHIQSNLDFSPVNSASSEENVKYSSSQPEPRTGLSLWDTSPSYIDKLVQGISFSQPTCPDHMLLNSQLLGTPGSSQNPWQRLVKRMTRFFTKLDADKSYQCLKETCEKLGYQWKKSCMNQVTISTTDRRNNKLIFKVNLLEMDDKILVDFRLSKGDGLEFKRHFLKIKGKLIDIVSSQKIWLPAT

[6] = target: T4, Interleukin-1 receptor-associated kinase 4 (Homo sapiens, UniProt Q9NWZ3); experiment: Inhibition of IRAK4
T4 sequence (Q9NWZ3 whole entry): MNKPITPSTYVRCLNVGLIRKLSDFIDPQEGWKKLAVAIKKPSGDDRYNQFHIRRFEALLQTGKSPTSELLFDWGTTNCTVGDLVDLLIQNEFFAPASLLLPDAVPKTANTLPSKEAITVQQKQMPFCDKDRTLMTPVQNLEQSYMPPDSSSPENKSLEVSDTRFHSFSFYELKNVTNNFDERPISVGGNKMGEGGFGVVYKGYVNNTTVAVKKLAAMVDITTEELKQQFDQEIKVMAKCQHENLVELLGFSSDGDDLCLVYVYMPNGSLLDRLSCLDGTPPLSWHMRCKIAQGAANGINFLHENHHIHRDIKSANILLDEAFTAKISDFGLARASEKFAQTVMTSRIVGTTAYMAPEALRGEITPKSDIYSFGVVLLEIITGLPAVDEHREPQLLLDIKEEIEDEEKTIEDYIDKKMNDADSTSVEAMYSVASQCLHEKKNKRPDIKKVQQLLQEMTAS

[7] = target: Ribosomal protein S6 kinase alpha-3 (Homo sapiens, UniProt P51812); experiment: Inhibition of RSK2
Sequence of Ribosomal protein S6 kinase alpha-3 (P51812 whole entry): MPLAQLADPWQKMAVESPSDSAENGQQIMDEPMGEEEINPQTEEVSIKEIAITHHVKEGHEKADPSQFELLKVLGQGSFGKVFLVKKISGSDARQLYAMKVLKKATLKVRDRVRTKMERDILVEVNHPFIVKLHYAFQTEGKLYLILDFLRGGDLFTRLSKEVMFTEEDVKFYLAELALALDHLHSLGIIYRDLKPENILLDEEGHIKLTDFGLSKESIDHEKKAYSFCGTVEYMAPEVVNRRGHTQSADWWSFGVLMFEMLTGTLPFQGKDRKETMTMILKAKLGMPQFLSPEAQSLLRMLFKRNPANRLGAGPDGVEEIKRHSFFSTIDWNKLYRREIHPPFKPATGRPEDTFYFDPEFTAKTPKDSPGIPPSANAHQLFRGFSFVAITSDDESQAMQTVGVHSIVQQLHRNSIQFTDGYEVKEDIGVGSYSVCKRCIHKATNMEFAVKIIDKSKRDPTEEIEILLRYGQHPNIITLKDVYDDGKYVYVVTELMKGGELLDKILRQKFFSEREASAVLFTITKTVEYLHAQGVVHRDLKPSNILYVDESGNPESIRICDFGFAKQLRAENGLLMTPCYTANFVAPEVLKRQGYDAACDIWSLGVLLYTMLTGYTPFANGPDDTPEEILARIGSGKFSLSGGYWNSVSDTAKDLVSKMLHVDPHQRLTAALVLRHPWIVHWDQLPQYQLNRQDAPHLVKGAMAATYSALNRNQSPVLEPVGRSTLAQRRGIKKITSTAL

Cc1cn2c(-c3cn[nH]c3)cnc2c(Nc2cc(CN3CCCCC3)ns2)n1
IC50 (Aurora kinase A): ≤ 4 nM
IC50 (Aurora kinase B [1]): ≤ 13 nM
EC50 (Aurora kinase B [2]): 50 nM
IC50 [3]: 4 nM
IC50 [4]: 12 nM
IC50 [5]: 20 nM
IC50 [6]: 56 nM
IC50 [7]: 360 nM

Cc1cn2c(-c3cnn(CC(=O)Nc4ccncc4)c3)cnc2c(Nc2cc(CN3CCCC(C)C3)ns2)n1 (stereo unspecified)
IC50 (Aurora kinase A): 12 nM
IC50 (Aurora kinase B [1]): ≤ 13 nM
EC50 (Aurora kinase B [2]): 83 nM
IC50 [3]: 108 nM
IC50 [4]: 731 nM
IC50 [5]: 100 nM
IC50 [6]: 1140 nM
IC50 [7]: 1100 nM
